Laboratory results from patent publication US4257962A, “Derivatives of bicyclic lactols” (Chinoin Gyogyszer es Vegyeszeti Termekek Gyara Rt., priority 1977, dated 1981).

Assay: Acute toxicity (LD50) in mice
Settings: mouse, in vivo

## CCCCCOC1C[C@@H]2[C@@H](/C=C/[C@H](O)CCCCC)[C@H](O)C[C@@H]2O1 (single isomer, unassigned; (-)) [(-)-2,3,3aβ,6aβ-Tetrahydro-2-pentyloxy-5α-hydroxy-4β-(3β-hydroxy-oct-1-trans-enyl)-cyclopentano[b]furan]
  LD50: 700 mg/kg
